Patent US20050148553A1, “Use of tigecycline, alone, or in combination with rifampin to treat osteomyelitis and/or septic arthritis” (priority 2003, published 2005)

Experiment: Whole body autoradiography after 30-minute 3 mg/kg IV infusion of [^14C]-tigecycline
Type: in vivo, Sprague-Dawley rats
Method: Male Sprague-Dawley and Long-Evans rats were obtained from Charles River Breeding Laboratories, Raleigh, N.C., and were quarantined for at least one week prior to the start of the study. […] The dosing solution was diluted and radioassayed directly in Ultima Gold scintillation counting cocktail (Packard Inc.). […] All pumps were calibrated prior to the administration of the compound. Rats were anesthetized with isoflurane prior to cardiac puncture exsanguination at the prescribed times after dosing. […] Control whole blood was collected from male Sprague-Dawley rats into tubes containing sodium heparin. Pooled blood was used to prepare the calibration standards and quality control samples. The standards were used to construct the standard curve for the quantification of radiolabeled drug distribution in tissues of whole blood cryosections. The quality controls, which were embedded in the same CMC block with each rat, were used for assessing intra- and inter-section variation in the thickness of rat whole-body cryosections. […] Immediately following euthanasia, each rat was totally immersed in a bath of hexane and dry ice (−75° C.) until frozen. Each carcass was dried and stored at −30° C. until embedded. […] Each frozen rat was sagitally sectioned at −20° C. A sufficient number of sections were collected to ensure sampling of all tissues of interest. The sections were dehydrated overnight in a cryochamber and then rapidly transferred to a dessicator containing CaSO4 to prevent condensation of atmospheric moisture while equilibrating to room temperature. The sections were mounted on cardboard and labeled with [^14C]-labeled black ink with a unique identification number. […] A small piece of Scotch tape was placed over the dried radioactive ink to prevent the contamination of the storage phosphor screens. Phosphor imaging plates, BAS-SR 2025 (Fuji Photo Film Co., Japan) were exposed to bright visible light for 20 minutes using an IP eraser (Raytest, USA Inc., New Castle, Del.) to remove background radiation. Sections and calibration blood standards were concurrently placed in direct contact with Ips and exposed for 7 days. All sections were stored at room temperature in a lead shielding box to minimize background levels. Phosphor images were generated using a Fujifilm BAS-5000 Bio-Imaging Analyzer and quantitated by MCID M2 Software, version 3.2 (Imaging Research Inc., St. Catherines, Ontario, Canada). The STDs and QCs were analyzed using the circular sampling tool in the MCID software program. Areas of interest in whole-body sections were manually outlined with the regional sampling tool to generate count data. Radioactive concentrations in select tissues were determined by digital analysis of the resulting autoradiograms on the basis of a calibration curve. […] The linear regression curve was then used to determine the concentration of unknown radioactivity of study samples. […] Blood samples were combusted using a Model 307 sample oxidizer (Packard Instrument Company). […] Research Triangle Park, N.C.), which applies a model-independent approach and standard procedures as described in Gibaldi and Perrier. Gibaldi, Pharmacokinetics, 1982. […] For IV infusion dosing, C30 min was the concentration at 30 minutes, the first sampling time point. The maximum plasma concentration (Cmax) and the corresponding time of peak concentration following IV administration were obtained directly by numerical inspection from the individual concentration-time data. The terminal half-life was calculated by the ratio of ln2/λz where λz is derived from the terminal slope of the concentration time curve. The area under the plasma concentration versus time curve from zero to infinity was calculated using the trapezoidal rule, where Clast is the last measurable plasma concentration. […]

Structure (SMILES): CN(C)c1cc(NC(=O)CNC(C)(C)C)c(O)c2c1C[C@H]1C[C@H]3[C@H](N(C)C)C(O)=C(C(N)=O)C(=O)[C@@]3(O)C(O)=C1C2=O [[^14C]-Tigecycline]
- AUC (Adrenal Gland): 29515 Ng eq hr/g
- Mean concentration of total radioactivity (Adrenal Gland, 0.5 Hrs): 3580 ng equiv./g
- Tissue:Plasma Ratio (Adrenal Gland, 0.5 Hrs): 4.00
- Mean concentration of total radioactivity (Adrenal Gland, 8.5 Hrs): 941 ng equiv./g
- Tissue:Plasma Ratio (Adrenal Gland, 8.5 Hrs): 1.87
- Mean concentration of total radioactivity (Adrenal Gland, 24 Hrs): 68.9 ng equiv./g
- Tissue:Plasma Ratio (Adrenal Gland, 24 Hrs): 4.67
- Mean concentration of total radioactivity (Adrenal Gland, 72 Hrs): 19.3 ng equiv./g
- Tissue:Plasma Ratio (Adrenal Gland, 72 Hrs): 4.47
- Mean concentration of total radioactivity (Adrenal Gland, 168 Hrs): <5.10 ng equiv./g
- Mean concentration of total radioactivity (Adrenal Gland, 336 Hrs): <5.10 ng equiv./g
- AUC (Adrenal Gland, first AUC column): 29153 Ng eq hr/g
- AUC (Blood): 1261 Ng eq hr/g
- Tissue:Plasma Ratio (Blood, 0.5 Hrs): 1.43
- Tissue:Plasma Ratio (Blood, 8.5 Hrs): 1.24
- Tissue:Plasma Ratio (Blood, 24 Hrs): 3.01
- Tissue:Plasma Ratio (Blood, 72 Hrs): 2.74
- AUC (Blood, first AUC column): 12063 Ng eq hr/g
- AUC (Bone): 794704 Ng eq hr/g
- AUC (Bone Marrow): 47468 Ng eq hr/g
- Mean concentration of total radioactivity (Bone Marrow, 0.5 Hrs): 4376 ng equiv./g
- Tissue:Plasma Ratio (Bone Marrow, 0.5 Hrs): 4.89
- Mean concentration of total radioactivity (Bone Marrow, 8.5 Hrs): 1562 ng equiv./g
- Tissue:Plasma Ratio (Bone Marrow, 8.5 Hrs): 3.10
- Mean concentration of total radioactivity (Bone Marrow, 24 Hrs): 291 ng equiv./g
- Tissue:Plasma Ratio (Bone Marrow, 24 Hrs): 19.7
- Mean concentration of total radioactivity (Bone Marrow, 72 Hrs): 22.5 ng equiv./g
- Tissue:Plasma Ratio (Bone Marrow, 72 Hrs): 5.21
- Mean concentration of total radioactivity (Bone Marrow, 168 Hrs): <5.10 ng equiv./g
- Mean concentration of total radioactivity (Bone Marrow, 336 Hrs): <5.10 ng equiv./g
- AUC (Bone Marrow, first AUC column): 47116 Ng eq hr/g
- Mean concentration of total radioactivity (Bone, 0.5 Hrs): 3312 ng equiv./g
- Tissue:Plasma Ratio (Bone, 0.5 Hrs): 3.70
- Mean concentration of total radioactivity (Bone, 8.5 Hrs): 3794 ng equiv./g
- Tissue:Plasma Ratio (Bone, 8.5 Hrs): 7.53
- Mean concentration of total radioactivity (Bone, 24 Hrs): 2711 ng equiv./g
- Tissue:Plasma Ratio (Bone, 24 Hrs): 184
- Mean concentration of total radioactivity (Bone, 72 Hrs): 1787 ng equiv./g
- Tissue:Plasma Ratio (Bone, 72 Hrs): 414
- Mean concentration of total radioactivity (Bone, 168 Hrs): 1526 ng equiv./g
- Mean concentration of total radioactivity (Bone, 336 Hrs): 720 ng equiv./g
- AUC (Bone, first AUC column): 569498 Ng eq hr/g
- AUC (Brain): 2865 Ng eq hr/g
- Cmax (Brain): 54 Ng equiv/g
- Mean concentration of total radioactivity (Brain, 0.5 Hrs): 35.8 ng equiv./g
- Tissue:Plasma Ratio (Brain, 0.5 Hrs): 0.040
- Mean concentration of total radioactivity (Brain, 8.5 Hrs): 54.3 ng equiv./g
- Tissue:Plasma Ratio (Brain, 8.5 Hrs): 0.108
- Mean concentration of total radioactivity (Brain, 24 Hrs): 35.8 ng equiv./g
- Tissue:Plasma Ratio (Brain, 24 Hrs): 2.42
- Mean concentration of total radioactivity (Brain, 72 Hrs): 13.3 ng equiv./g
- Tissue:Plasma Ratio (Brain, 72 Hrs): 3.10
- Mean concentration of total radioactivity (Brain, 168 Hrs): <5.10 ng equiv./g
- Mean concentration of total radioactivity (Brain, 336 Hrs): <5.10 ng equiv./g
- AUC (Brain, first AUC column): 2256 Ng eq hr/g
- AUC (Eyes): 3221 Ng eq hr/g
- Cmax (Eyes): 108 Ng equiv/g
- Mean concentration of total radioactivity (Eyes, 0.5 Hrs): 106 ng equiv./g
- Tissue:Plasma Ratio (Eyes, 0.5 Hrs): 0.118
- Mean concentration of total radioactivity (Eyes, 8.5 Hrs): 108 ng equiv./g
- Tissue:Plasma Ratio (Eyes, 8.5 Hrs): 0.215
- Mean concentration of total radioactivity (Eyes, 24 Hrs): 36.6 ng equiv./g
- Tissue:Plasma Ratio (Eyes, 24 Hrs): 2.46
- Mean concentration of total radioactivity (Eyes, 72 Hrs): 6.76 ng equiv./g
- Tissue:Plasma Ratio (Eyes, 72 Hrs): 1.57
- Mean concentration of total radioactivity (Eyes, 168 Hrs): <5.10 ng equiv./g
- Mean concentration of total radioactivity (Eyes, 336 Hrs): <5.10 ng equiv./g
- AUC (Eyes, first AUC column): 3060 Ng eq hr/g
- AUC (Fat): 3500 Ng eq hr/g
- Mean concentration of total radioactivity (Fat, 0.5 Hrs): 450 ng equiv./g
- Tissue:Plasma Ratio (Fat, 0.5 Hrs): 0.50
- Mean concentration of total radioactivity (Fat, 8.5 Hrs): 144 ng equiv./g
- Tissue:Plasma Ratio (Fat, 8.5 Hrs): 0.287
- Mean concentration of total radioactivity (Fat, 24 Hrs): <5.1 ng equiv./g
- Mean concentration of total radioactivity (Fat, 72 Hrs): <5.10 ng equiv./g
- Mean concentration of total radioactivity (Fat, 168 Hrs): <5.10 ng equiv./g
- Mean concentration of total radioactivity (Fat, 336 Hrs): <5.10 ng equiv./g
- AUC (Fat, first AUC column): 2489 Ng eq hr/g
- AUC (Heart): 40179 Ng eq hr/g
- Mean concentration of total radioactivity (Heart, 0.5 Hrs): 5657 ng equiv./g
- Tissue:Plasma Ratio (Heart, 0.5 Hrs): 6.32
- Mean concentration of total radioactivity (Heart, 8.5 Hrs): 1138 ng equiv./g
- Tissue:Plasma Ratio (Heart, 8.5 Hrs): 2.26
- Mean concentration of total radioactivity (Heart, 24 Hrs): 69.9 ng equiv./g
- Tissue:Plasma Ratio (Heart, 24 Hrs): 4.74
- Mean concentration of total radioactivity (Heart, 72 Hrs): 6.98 ng equiv./g
- Tissue:Plasma Ratio (Heart, 72 Hrs): 1.62
- Mean concentration of total radioactivity (Heart, 168 Hrs): <5.10 ng equiv./g
- Mean concentration of total radioactivity (Heart, 336 Hrs): <5.10 ng equiv./g
- AUC (Heart, first AUC column): 40083 Ng eq hr/g
- AUC (Kidney): 70704 Ng eq hr/g
- Cmax (Kidney): 7601 Ng equiv/g
- Mean concentration of total radioactivity (Kidney, 0.5 Hrs): 7601 ng equiv./g
- Tissue:Plasma Ratio (Kidney, 0.5 Hrs): 8.49
- Mean concentration of total radioactivity (Kidney, 8.5 Hrs): 1725 ng equiv./g
- Tissue:Plasma Ratio (Kidney, 8.5 Hrs): 3.42
- Mean concentration of total radioactivity (Kidney, 24 Hrs): 140 ng equiv./g
- Tissue:Plasma Ratio (Kidney, 24 Hrs): 9.49
- Mean concentration of total radioactivity (Kidney, 72 Hrs): 47.9 ng equiv./g
- Tissue:Plasma Ratio (Kidney, 72 Hrs): 11.1
- Mean concentration of total radioactivity (Kidney, 168 Hrs): 41.3 ng equiv./g
- Mean concentration of total radioactivity (Kidney, 336 Hrs): 13.9 ng equiv./g
- AUC (Kidney, first AUC column): 68333 Ng eq hr/g
- AUC (Liver): 53527 Ng eq hr/g
- Cmax (Liver): 7300 Ng equiv/g
- Mean concentration of total radioactivity (Liver, 0.5 Hrs): 7300 ng equiv./g
- Tissue:Plasma Ratio (Liver, 0.5 Hrs): 8.16
- Mean concentration of total radioactivity (Liver, 8.5 Hrs): 1192 ng equiv./g
- Tissue:Plasma Ratio (Liver, 8.5 Hrs): 2.37
